Like-named read-outs stand apart in the source and are kept apart here.
Assays:
[1] = target: T1, recombinant human 5HT6 receptor (Homo sapiens, UniProt P50406); assay: Binding to the 5HT6 serotonin receptor ([3H]-LSD, HEK-293 cell membranes); conditions: for inhibition at 1 µM: read-out: % Inhibition 10^−6 M
T1 construct: purchased Receptor Biology; host or cells: HEK-293
Method: Binding to the 5HT6 Serotonin Receptor
The respective part of the literature descriptions is incorporated here by reference and form part of the disclosure. […] The assays are carried out in triplicate.

[2] = table 1e, compounds of general formula (Ie)

T1 sequence (P50406 whole entry): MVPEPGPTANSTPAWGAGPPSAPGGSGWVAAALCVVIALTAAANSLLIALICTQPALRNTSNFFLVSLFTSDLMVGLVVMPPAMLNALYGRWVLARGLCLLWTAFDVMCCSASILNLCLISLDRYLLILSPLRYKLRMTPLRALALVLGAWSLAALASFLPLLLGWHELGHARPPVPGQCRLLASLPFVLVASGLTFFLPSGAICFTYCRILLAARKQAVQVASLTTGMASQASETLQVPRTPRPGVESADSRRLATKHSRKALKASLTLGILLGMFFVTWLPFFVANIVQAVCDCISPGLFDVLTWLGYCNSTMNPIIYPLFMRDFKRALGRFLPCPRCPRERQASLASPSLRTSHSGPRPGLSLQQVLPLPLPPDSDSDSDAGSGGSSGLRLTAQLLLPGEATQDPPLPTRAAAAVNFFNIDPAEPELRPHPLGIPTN

O=C(CN1CCC(Nc2ccccc2CO)CC1)Nc1ccc2c(c1)CCC2=O
melting point: 138 to 140 °C

CN(C)CCn1ccc2cc(NS(=O)(=O)c3cccc4nsnc34)ccc21 [Example 10e, N-[1-(2-dimethylaminoethyl)-1H-indole-5-yl]-benzo[1,2,5]thiadiazole-4-sulfonamide]
melting point: 166 to 168 °C

CN(C)CCn1ccc2cc(NS(=O)(=O)c3cccc(Br)c3)ccc21 [Example 13e, N-[1-(2-dimethylaminoethyl)-1H-indole-5-yl]-3-bromobenzenesulfonamide]
Ki [1, 2]: 82.5 nM

Cc1cccc2c1N(C1CCN(S(=O)(=O)c3cccc4ccccc34)CC1)C(=O)OC2 [Example 4b, 8-Methyl-1-[1-(naphthyl-1-sulfonyl)-piperidine-4-yl]-1,4-dihydro-benzo[d][1,3]oxazine-2-one]
Ki [1]: 246 nM

O=C1OCc2ccccc2N1C1CCN(S(=O)(=O)c2cccc3cccnc23)CC1 [Example 5b]
Ki [1]: 152 nM

CN(C)CCn1ccc2cc(NS(=O)(=O)c3cc(Cl)c(Cl)s3)ccc21 [Example 20e, N-[1-(2-dimethylaminoethyl)-1H-indole-5-yl]-4,5-dichlorothiophene-2-sulfonamide]
Ki [1, 2]: 84.8 nM

CN(C)CCn1ccc2ccc(NS(=O)(=O)c3cc(Cl)cc(Cl)c3)cc21 [Example 8f, N-[1-(2-Dimethylaminoethyl)-1H-indol-6-yl]-3,5-dichlorobenzenesulfonamide]
inhibition at 1 µM ([1]; 10^−6 M, table 1f, compounds of general formula (If)): 86.9%
Ki ([1]; table 1f, compounds of general formula (If)): 159 nM

O=S(=O)(C1CCCCC1)n1cc(C2=CCN3CCCC3C2)c2cc(F)ccc21 (stereo not drawn) [Example 4h, 1-cyclohexanesulfonyl-5-fluoro-3-(1,2,3,5,8,8a-hexahydro-indolizine-7-yl)-1H-indole]
Ki ([1]; table 1h, compounds of general formula (Ih)): 191 nM

CN(C)c1cccc2c(S(=O)(=O)N3CCC(N4C(=O)OCc5ccccc54)CC3)cccc12 [Example 8b, 1-[1-(5-Dimethylamino-naphthyl-1-sulfonyl)-piperidine-4-yl]-1,4-dihydro-benzo[d][1,3]oxazine-2-one]
inhibition at 1 µM ([1]; 10^−6 M, table 2b, compounds of general formula (Ib)): 68%

O=C1OCc2ccccc2N1C1CCN(S(=O)(=O)c2cccc3ccccc23)CC1 [Example 1b, 1-[1-(Naphthyl-1-sulfonyl)-piperidine-4-yl]-1,4-dihydro-benzo[d][1,3]oxazine-2-one]
Ki [1]: 51.7 nM
inhibition at 1 µM [1]: 98.1 ± 4%
